Experimental data from patent US5830909A (American Cyanamid Company, priority 1996, dated 1998).
Where a name gives a salt, the structure may show the parent alone. Read-outs that look alike come from different tables or passages of the source. Values belong to the molecule of their own block, whether it stands above or below them.

Assays:
AII receptor = target: T1, AII receptor (Rattus norvegicus, UniProt P25095); experiment: Displacement of 125I[Sar,Ile]AII binding in rat epididymal fat cell membranes; conditions: rat epididymal fat cell membranes (Table 8)
T1 construct: adipose tissue from the epididymal and retroperitoneal depots is quickly excised; from tissue; host or cells: membranes of collagenase-isolated adipocytes from epididymal and retroperitoneal fat of male Sprague-Dawley rats
T1 sequence (P25095 1-359): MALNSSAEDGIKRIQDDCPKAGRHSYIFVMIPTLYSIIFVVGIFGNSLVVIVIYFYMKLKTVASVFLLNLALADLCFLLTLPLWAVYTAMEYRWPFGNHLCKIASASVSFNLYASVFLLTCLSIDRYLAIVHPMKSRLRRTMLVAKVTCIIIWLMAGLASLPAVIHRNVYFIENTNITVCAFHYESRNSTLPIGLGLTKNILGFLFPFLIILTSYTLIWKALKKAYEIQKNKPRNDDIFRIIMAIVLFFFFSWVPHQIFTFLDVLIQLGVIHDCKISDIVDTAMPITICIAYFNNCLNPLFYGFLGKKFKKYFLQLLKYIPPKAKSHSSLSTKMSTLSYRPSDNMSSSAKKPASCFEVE
Text: The experimental design involves determining the binding characteristics of adipocyte membranes harvested from two different anatomic sites at three different ages. Male Sprague-Dawley rats (Charles River Laboratories, Wilmington, Mass.) are used at 40, 70 and 100 days of age. Rats are killed by carbon dioxide inhalation on the morning of the experiment, and adipose tissue from the epididymal and retroperitoneal depots is quickly excised and placed in cold saline. The spermatic artery and vein are removed from the epididymal fat, and brown fat deposits are dissected away from the retroperitoneal depot. The adipose tissue is weighed, minced into small pieces, and approximately 10 g each transferred to a flask containing 25 ml of Krebs-Ringer-bicarbonate buffer (KRB), 6 mM glucose and 50 mg of collagenase, pH 7.4. […] Intact adipocytes dissociated from the tissue pass freely into waiting tubes, while the undigested tissue is trapped on the screen. The tubes containing the adipocytes are washed an additional 4× with 20 ml each of cold Tris buffer (10 mM Tris HCl, pH 8.0) by first allowing the adipocytes to separate from the digestion medium by flotation, removing the infranatant through polyethylene tubing attached to a syringe, resuspending the cells in the Tris buffer, and repeating this procedure. Adipocyte membranes used for binding studies are prepared as follows. […] Following centrifugation, the fat cake and supernatant are carefully removed, and the pellet resuspended in 1 ml of Tris buffer. Protein content of the high speed pellet is determined, the resuspended protein is either assayed immediately or stored at -75° before binding assays are performed. […] The assay is initiated by the addition of the membrane protein, followed by incubation at 22° C. for 30 minutes in a slowly shaking water bath. Separation of bound from free radioactivity is achieved using any appropriate filtration apparatus. We use either a Millipore or Brandel model harvesting apparatus containing a Durapore or Whatman GF/B filter, followed by 6 additional rinses with 5 ml each of cold saline. The filters are placed in tubes, and radioactivity measured in a gamma scintillation counter programmed to correct for the half-life of the isotope. Using this experimental protocol, both the affinity (KD) and number of binding sites (Bmax) for angiotensin II on the adipocyte membrane can be calculated. The relative affinities of different anatomically distinct adipocyte membranes for a variety of peptide and nonpeptide antagonists can also be determined. […] Concentration ranges can be altered dependent upon the affinity of the particular antagonist for the fat cell membrane receptor.

epididymal adipocytes = experiment: Epididymal adipocyte cell volume after two weeks oral treatment; type: in vivo, rat; conditions: 4 rats/group, oral once daily for 2 weeks
Procedure: (§1) Body weight and food intake are monitored daily. At the end of two weeks, the rats are sacrificed and tissues are weighed. Adipocyte membranes are prepared by collagenase digestion, homogenization and centrfugation. […] Of the organs sampled, the combined largest relative and quantitative change in weight was in the adipose tissue.

adipocyte AII receptor = experiment: Epididymal adipocyte AII receptor binding (Bmax) after two weeks oral treatment; type: in vivo, rat; conditions: 4 rats/group, oral once daily for 2 weeks
Procedure: Body weight and food intake are monitored daily. At the end of two weeks, the rats are sacrificed and tissues are weighed. Adipocyte membranes are prepared by collagenase digestion, homogenization and centrfugation.
Binding is initiated by suspending the adipocyte membranes in 0.25% BSA buffer (bovine serum albumin, 50 mM Tris HCl, 5 mM MgCl2,pH 7.4) to a final concentration of 5 ug protein/10 ul buffer. […] The filters are placed in tubes, and radioactivity measured in a gamma scintillation counter programmed to correct for the half-life of the isotope. Using this experimental protocol, both the affinity (KD) and number of binding sites (Bmax) for angiotensin II on the adipocyte membrane can be calculated.

[1] = type: in vivo, rat; conditions: 15 mg/kg once a day by gavage, two weeks
Procedure: as §1

[2] = Epididymal IC50 for displacement of 125I[Sar,Ile]AII binding
[3] = read-out: Epididymal IC50 for displacement of 125I[Sar,Ile]AII binding

Molecule: CCCCc1nc2ccc([C@@H]3C[C@@H]4[C@H](O3)ON3[C@H]4CCC3(C)C)cc2c(=O)n1Cc1ccc(-c2ccccc2-c2nn[nH]n2)cc1 [[2S-(2α,3aα,3bβ,8aα)]-2-butyl-6-(6,6'-dimethyloctahydrofuro[3,2-d]pyrrolo[1,2-d]isoxazol-2-yl)-3-[[2'-(1H-tetrazol-5-yl)[1,1'-biphenyl]-4-yl]methyl]-4(3H)-quinazolinone]
IC50 (AII receptor; [3]): 14.1 nM

Molecule: CCCCc1nc2ccc(C3(C(=O)OC)CC4CCCN4O3)cc2c(=O)n1Cc1ccc(-c2ccccc2-c2nnn[nH]2)cc1 (mixture of isomers) [trans-(+/-)-2-[2-butyl-3,4-dihydro-4-oxo-3-[[2'-(1H-tetrazol-5-yl)[1,1'-biphenyl]-4-yl]methyl]-6-quinazolinyl]hexahydropyrrolo[1,2-b]isoxazole-2-carboxylic acid methyl ester monohydro]
IC50 (AII receptor; [2]): 23.5 nM

Molecule: CCCCc1nc2ccc(COc3ccccc3)cc2c(=O)n1Cc1ccc(-c2ccccc2-c2nnn[nH]2)cc1 [2-butyl-6-(phenoxymethyl)-3-[[2'-(1H-tetrazol-5-yl)[1,1'-biphenyl]-4-yl]methyl]-4(3H)-quinazolinone]
IC50 (AII receptor; [2]): 163 nM

Molecule: 2-butyl-5,6,7,8-tetrahydro-6-(2-hydroxy-2-methyl-1-oxopropyl)-3-[[2'-(1H-tetrazol-5-yl)[1,1'-biphenyl]-4-yl]methyl]-4(3H)-quinazolinone
IC50 (AII receptor; [3]): 1.36 nM

Molecule: CCCCc1nc(Cl)c(CO)n1Cc1ccc(-c2ccccc2-c2nnn[nH]2)cc1 [2-n-butyl-4-chloro-5-hydroxymethyl-1-[(2'-(1H-tetrazol-5-yl)biphenyl-4-yl)methyl]imidazole, reference compound]
Adipocyte Cell Volume (epididymal adipocytes): 163 p1
Bmax, epididymal adipocyte AII receptor binding (adipocyte AII receptor): 24.7 fmole/mg protein
Avg. Daily Food Intake, % Change From Control [1]: -8%
Avg. Weight Gain, % Change From Control [1]: -38%
Epididymal Fat Weight, % Change From Control [1]: -21%
Final Body Weight, % Change From Control [1]: -5%
Retroperitoneal Fat Weight, % Change From Control [1]: -16%
Avg. Daily Food Intake ([1]; n = 6): 30.1 g
Avg. Weight Gain ([1]; n = 6): 35 g
Epididymal Fat Weight ([1]; n = 6): 4.10 g
Final Body Weight ([1]; n = 6): 431 g
Retroperitoneal Fat Weight ([1]; n = 6): 4.10 g

Molecule: CCCCc1nc2ccc(C3(C)NN[C@H]4C(=O)N(C)C(=O)[C@H]43)cc2c(=O)n1Cc1ccc(-c2ccccc2-c2nn[nH]n2)cc1 (relative stereo) [(3aα,6aα)-3-[2-butyl-3,4-dihydro-4-oxo-3-[[2'-(1H-tetrazol-5-yl)[1,1'-biphenyl]-4-yl]methyl]-6-quinazolinyl]-2,3,3a,6a-tetrahydro-3,5-dimethylpyrrolo[3,4-c]pyrazole-4,6-(1H,5H)-dione]
IC50 (AII receptor; [3]): 550 nM

Molecule: CCCCc1nc2ccc(C3(C)CC(C(=O)OCC)=NO3)cc2c(=O)n1Cc1ccc(-c2ccccc2-c2nn[nH]n2)cc1 (centres unmarked) [5-[2-butyl-3,4-dihydro-4-oxo-3-[[2'-(1H-tetrazol-5-yl)[1,1'-biphenyl]-4-yl]methyl]-6-quinazolinyl]-4,5-dihyrdro-5-methyl-3-isoxazolecarboxylic acid ethyl ester]
IC50 (AII receptor; [2]): 35.7 nM

Molecule: CCCCc1nc2ccc(C3=NN4CCCCC4C3)cc2c(=O)n1Cc1ccc(-c2ccccc2-c2nn[nH]n2)cc1 (centres unmarked) [2-butyl-6-(3,3a,4,5,6,7-hexahydropyrazolo[1,5-a]pyridin-2-yl)-3-[[2'-(1H-tetrazol-5-yl)[1,1'-biphenyl]-4-yl]methyl]-4(3H)-quinazolinone]
IC50 (AII receptor; [2]): 86.7 nM

Molecule: CCCCc1nc2ccc(C3CC(c4ccc(C)cc4)=NO3)cc2c(=O)n1Cc1ccc(-c2ccccc2-c2nnn[nH]2)cc1 (centres unmarked) [2-butyl-6-[4,5-dihydro-3-(4-methylphenyl)-5-isoxazolyl]-3-[[2'-(1H-tetrazol-5-yl)[1,1'-biphenyl]-4-yl]methyl]-4(3H)-quinazolinone]
IC50 (AII receptor; [2]): 126 nM

Molecule: 2-butyl-3,5,7,8-tetrahydro-3-[[2'-(1H-tetrazol-5-yl)[1,1'-biphenyl]-4-yl]methyl]-pyrido[4,3-d]pyrimidin-6(4H)-carboxylic acid phenylmethyl ester
IC50 (AII receptor; [3]): 17.9 nM

The next lines start with the values.

IC50 (AII receptor; [2]): 17.2 nM
Molecule: CCCCc1nc2ccc(COc3ccccn3)cc2c(=O)n1Cc1ccc(-c2ccccc2-c2nn[nH]n2)cc1 [2-butyl-6-[(2-pyridinyloxy)methyl]-3-[[2'-(1H-tetrazol-5-yl)[1,1'-biphenyl]-4-yl]methyl]-4(3H)-quinazolinone hydrochloride]

IC50 (AII receptor; [2]): 3.14 nM
Molecule: CCCCc1nc2ccc(C(O)C3CCCS3(=O)=O)cc2c(=O)n1Cc1ccc(-c2ccccc2-c2nn[nH]n2)cc1 (single isomer, unassigned) [2-butyl-6-[hydroxy(tetrahydro-2-thienyl)methyl]-3-[[2'-(1H-tetrazol-5-yl)[1,1'-biphenyl]-4-yl]methyl]-4(3H)-quinazolinone S,S-dioxide isomer 2]

IC50 (AII receptor; [2]): 7.9 nM
Molecule: CCCCc1nc2ccc(C(C)(O)C3CCN(C)C3=O)cc2c(=O)n1Cc1ccc(-c2ccccc2-c2nn[nH]n2)cc1 (single isomer, unassigned) [2-butyl-6-[1-hydroxy-1-(1-methyl-2-oxo-3-pyrrolidinyl)ethyl]-3-[[2'-(1H-tetrazol-5-yl)[1,1'-biphenyl]-4-yl]methyl]-4(3H)-quinazolinone isomer 1]

IC50 (AII receptor; [2]): 2.44 nM
Molecule: CCc1nc2c(C)cc(C)nc2n1Cc1ccc(-c2ccccc2-c2nnn[nH]2)cc1 [2-ethyl-5,7-dimethyl-3-[[2'-(1H-tetrazol-5-yl)[1,1-biphenyl]-4-yl]methyl]-3H-imidazo[4,5-b]pyridine, reference compound]

IC50 (AII receptor; [2]): 8.2 nM
Molecule: CCCCc1nc2ccc([C@H]3C[C@@H](CO)ON3C)cc2c(=O)n1Cc1ccc(-c2ccccc2-c2nnn[nH]2)cc1 [(3R-cis)-2-butyl-6-[5-(hydroxymethyl)-2-methyl-3-isoxazolidinyl]-3-[[2'-(1H-tetrazol-5-yl)[1,1'-biphenyl-4-yl]methyl]-4(3H)-quinazolinone]

IC50 (AII receptor; [2]): 18.6 nM
Molecule: CCCCc1nc2ccc([C@@H]3C[C@@H](CO)ON3C)cc2c(=O)n1Cc1ccc(-c2ccccc2-c2nnn[nH]2)cc1 [(3S-trans)-2-butyl-6-[5-(hydroxymethyl)-2-methyl-3-isoxazolidinyl]-3-[[2'-(1H-tetrazol-5-yl)[1,1'-biphenyl]-4-yl]methyl]-4(3H)-quinazolinone]

IC50 (AII receptor; [2]): 1.68 nM
Molecule: CCCCc1nc2ccc(C(O)C3CCCS3(=O)=O)cc2c(=O)n1Cc1ccc(-c2ccccc2-c2nn[nH]n2)cc1 (single isomer, unassigned) [2-butyl-6-[hydroxy(tetrahydro-2-thienyl)methyl]-3-[[2'-(1H-tetrazol-5-yl)[1,1'-biphenyl]-4-yl]methyl]-4(3H)-quinazolinone S,S-dioxide isomer 1]

IC50 (AII receptor; [2]): 5.63 nM
Molecule: CCCc1nc(C)n2[nH]c(=O)nc2c1Cc1ccc(-c2ccccc2-c2nnn[nH]2)cc1 [5-methyl-7-propyl-8-[(2'-(1H-tetrazol-5-yl)biphenyl-4-yl)methyl]-1,2,4-triazolo[1,5-c]pyrimidin-2(3H)-one, reference compound]
